Results published in US20200024246A1, “POGOSTONE DERIVATIVES AND METHODS OF USING THE SAME” (Hamyard Associates LLC, priority 2018, published 2020).
Read-outs that look alike come from different tables or passages of the source.

Assays:
adult female mosquitoes = assay: whole plant or invertebrate; conditions: for pest or weed control at 0.5 % / pest or weed control at 1.5 % / mortality at 0.5 % / mortality at 1.5 %: Culicidae; for pest or weed control at 0.5 % / pest or weed control at 1.5 %: 1 h; for pest or weed control at 0.5 %: read-out: Knockdown at 0.5%; for pest or weed control at 1.5 %: read-out: Knockdown at 1.5%; for mortality at 0.5 %: read-out: Mortality at 0.5%; for mortality at 1.5 %: read-out: Mortality at 1.5%; for ranking in knockdown and mortality screenings: words
Experimental: The first group of DHAA-based derivatives that were tested included Formula A2, Formula B3, Formula C3, and Formula D3. A solution of 0.5% or 1.5% of each of these compounds was applied to the mosquitoes, as described above. […] Acetone was used as a control.

adult, female mosquitoes = assay: Topical application on adult female mosquitoes (24-h mortality, 1-h knockdown); assay type: in vivo, mosquito; conditions: for ED50: read-out: KD50 (ug/g mosquito); for LD50: read-out: LD50 (ug/g mosquito)
house flies = assay: Knockdown and mortality of DHAA-based derivatives on house flies; assay type: in vivo, house fly
Excerpt: Accordingly, further derivatives with structures similar to Formula C3 were synthesized and tested for knockdown potential and mortality in house flies and mosquitoes using an experimental design similar to the one described above. These compounds include Formula C5, Formula C6, Formula C7, Formula C8, Formula C9, and Formula C10.

[1] = Mosquito Knockdown Properties (1 hour), topical application
[2] = Mosquito Toxicity (24 hours), topical application to pronotum

Cc1cc(O)c(C(=O)CC(O)C2CCCCC2)c(=O)o1 (centres unmarked) [Formula C15]
pest or weed control at 0.5 % (adult female mosquitoes; topical): 23%
pest or weed control at 1.5 % (adult female mosquitoes; topical): 50%
mortality at 0.5 % (adult female mosquitoes; topical, 24 h): 33%
mortality at 1.5 % (adult female mosquitoes; topical, 24 h): 63%
ranking in knockdown and mortality screenings (adult female mosquitoes): appear to be the most potent insecticidal compounds

CCC(=O)c1c(O)cc(C)oc1=O [Formula 7]
ED50 (adult, female mosquitoes; [1]): > 1500 mg/kg
LD50 (adult, female mosquitoes; [2]): > 1500 mg/kg

Cc1cc2occ(CC(C)C)c(=O)c2c(=O)o1 [Formula C22]
pest or weed control at 0.5 % (adult female mosquitoes; topical): 10%
pest or weed control at 1.5 % (adult female mosquitoes; topical): 10%
mortality at 0.5 % (adult female mosquitoes; topical, 24 h): 7%
mortality at 1.5 % (adult female mosquitoes; topical, 24 h): 13%

CC(C)CCC(=O)C1=Cc2ccccc2OC1 [Formula 17]
ED50 (adult, female mosquitoes; topical, 1 h): > 1500 mg/kg
LD50 (adult, female mosquitoes; topical, 24 h): > 1500 mg/kg

CC(C)C(O)CC(=O)c1c(O)c2ccccc2oc1=O (centres unmarked) [Formula C25]
pest or weed control at 0.5 % (adult female mosquitoes; topical): 93%
pest or weed control at 1.5 % (adult female mosquitoes; topical): 100%
mortality at 0.5 % (adult female mosquitoes; topical, 24 h): 100%
mortality at 1.5 % (adult female mosquitoes; topical, 24 h): 100%
ranking in knockdown and mortality screenings (adult female mosquitoes): appear to be the most potent insecticidal compounds

CC(C)CCC(=O)C1C(=O)N(C)C(=O)N(C)C1=O [Formula C24]
pest or weed control at 0.5 % (adult female mosquitoes; topical): 93%
pest or weed control at 1.5 % (adult female mosquitoes; topical): 100%
mortality at 0.5 % (adult female mosquitoes; topical, 24 h): 97%
mortality at 1.5 % (adult female mosquitoes; topical, 24 h): 97%
ranking in knockdown and mortality screenings (adult female mosquitoes): appear to be the most potent insecticidal compounds

Cc1ccc(C(C)C)c(O)c1 [Thymol, reference compound]
ED50 (adult, female mosquitoes; [1]): 1700 mg/kg

C=CCCC(=O)c1c(O)cc(C)oc1=O [Formula C26]
pest or weed control at 0.5 % (adult female mosquitoes; topical): 100%
pest or weed control at 1.5 % (adult female mosquitoes; topical): 97%
mortality at 0.5 % (adult female mosquitoes; topical, 24 h): 100%
mortality at 1.5 % (adult female mosquitoes; topical, 24 h): 100%
ranking in knockdown and mortality screenings (adult female mosquitoes): appear to be the most potent insecticidal compounds

O=C(c1c(O)c2ccccc2oc1=O)C1CCC1 [Formula 27]
ED50 (adult, female mosquitoes; topical, 1 h): > 1500 mg/kg
LD50 (adult, female mosquitoes; topical, 24 h): 28.8 mg/kg
insecticidal properties compared with natural pogostone, natural pyrethrins or terpenoids (adult, female mosquitoes; words, refers to Table 1): possessed better insecticidal properties at least as well as natural pyrethrins
1-hour Knockdown EC50 (μg/g mosquito) (adult female mosquitoes; in vivo): >1500 μg/g mosquito
LD50 (adult female mosquitoes; topical, 24 h, read-out: 24-hour Mortality LD50 (μg/g mosquito)): 29 mg/kg

CCCCCCCC(=O)c1c(O)c2ccccc2oc1=O [Formula 25]
ED50 (adult, female mosquitoes; topical, 1 h): > 1500 mg/kg
LD50 (adult, female mosquitoes; topical, 24 h): > 1500 mg/kg

Cc1cc(O)c(C(=O)CSCC(=O)O)c(=O)o1 [Formula C6]
Mosquito Knockdown at 0.5% concentration (adult female mosquitoes): 27%
Mosquito Mortality at 0.5% concentration (adult female mosquitoes): 43%
Mosquito Knockdown at 1.5% concentration (adult female mosquitoes): 18%
Mosquito Mortality at 1.5% concentration (adult female mosquitoes): 15%
House Fly Knockdown at 0.5% concentration (house flies): 2.5%
House Fly Mortality at 0.5% concentration (house flies): 10%
House Fly Knockdown at 1.5% concentration (house flies): 7%
House Fly Mortality at 1.5% concentration (house flies): 6%

CCCCCCCCCC(=O)c1c(O)c2ccccc2n(C)c1=O [Formula 20]
LD50 (adult, female mosquitoes; topical, 24 h): > 1500 mg/kg

CC(C)CCC(=O)c1c(O)cc(C(C)(C)C)oc1=O [Formula 11]
ED50 (adult, female mosquitoes; [1]): > 1500 mg/kg
LD50 (adult, female mosquitoes; [2]): > 1500 mg/kg

CCOC(=O)/C(O)=C/C(=O)c1c(O)cc(C)oc1=O [Formula 8]
ED50 (adult, female mosquitoes; [1]): > 1500 mg/kg
LD50 (adult, female mosquitoes; [2]): > 1500 mg/kg

Cc1cc(O)c(C(=O)COCC(=O)O)c(=O)o1 [Formula C14]
pest or weed control at 0.5 % (adult female mosquitoes; topical): 7%
pest or weed control at 1.5 % (adult female mosquitoes; topical): 0%
mortality at 0.5 % (adult female mosquitoes; topical, 24 h): 13%
mortality at 1.5 % (adult female mosquitoes; topical, 24 h): 40%

C=CCCC(=O)c1cc2ccccc2oc1=O [Formula 22]
LD50 (adult, female mosquitoes; topical, 24 h): > 1500 mg/kg

COCC(=O)c1c(O)cc(C)oc1=O [Formula C9]
Mosquito Knockdown at 0.5% concentration (adult female mosquitoes): 37%
Mosquito Mortality at 0.5% concentration (adult female mosquitoes): 73%
Mosquito Knockdown at 1.5% concentration (adult female mosquitoes): 53%
Mosquito Mortality at 1.5% concentration (adult female mosquitoes): 70%
House Fly Knockdown at 0.5% concentration (house flies): 0%
House Fly Mortality at 0.5% concentration (house flies): 5%
House Fly Knockdown at 1.5% concentration (house flies): 1%
House Fly Mortality at 1.5% concentration (house flies): 6%
